A short description of one series: Water-solubility. Particulars: compared with 3-CP, data not shown.
Series [1] has as its system ovalbumin-induced murine model of asthma. In words: Lung resistance / airway hyper-responsiveness to methacholine in OVA asthma model. The series is classed as in vivo, BALB/c mice. The note with it: oral. How it is done: (§1) All experimental procedures were carried out in accordance with the NIH Guidelines for the Care and Use of Laboratory Animals. Specific pathogen-free (SPF) male BALB/c mice (6-7 weeks of age, 18-22 grams), routinely screened serologically for relevant respiratory pathogens, were maintained in an animal housing facility for 1 week before use and given access to food and water ad libitum. Animals were randomly assigned to the indicated experimental groups, and sensitized with two intraperitoneal (IP) injections (20 μg ovalbumin (OVA) emulsified in 2 mg aluminum hydroxide (an adjuvant) in 200 μl phosphate buffer saline (PBS), pH 7.4), on days 1 and 10.
(§2) After another week, the animals were challenged by exposure to ovalbumin (OVA) aerosol (1%, w/v, in PBS) for 30 minutes each day on days 17, 18 and 19, in order to elicit an inflammatory reaction in the lungs characterized by airway hyper-responsiveness (AHR), an influx of inflammatory cells (particularly eosinophils), and increased pulmonary levels of various cytokines and transforming growth factors, protein nitration and lipid peroxidation.
(§3) The features of allergic inflammation typically reached their peak a day or two after the final exposure. Mice were then subjected to one of the following treatments: (i) sham-sensitization plus challenge with PBS; (ii) positive control-sensitization plus challenge with OVA; (iii) sensitization plus challenge with OVA and various indicated treatments (e.g., with nitroxide or dexamethasone), including different modes (oral, IP, intranasal, inhalation), time windows (sensitization stage, challenge stage, both stages and after the last challenge), and doses of nitroxide administration.
One day after the final challenge, respiratory activity and airway hyper-responsiveness (AHR) of experimental animals were evaluated. Whole body plethysmographs for enhanced pause (Penh) measurements are often used for assessment of AHR. However, critics have questioned the validity of Penh measurements, which supposedly measure airway obstruction of live non-sedated mice, stating that it is likely to measure the distress of the animal rather than actual obstruction. […] In brief, mice were sedated with an intraperitoneal (IP) injection of xylazine hydrochloride and anaesthetized with IP injection of pentobarbital. Subsequently, the animals were tracheostomized using an 18 gauge cannula, ventilated with a FlexiVent™ apparatus (SCIREQ), and muscle paralysis was induced with pancuronium bromide. The mice were ventilated in a quasi-sinusoidal fashion with the following settings: a tidal volume of 10 ml/kg, maximum inflation pressure of […] (30 cm H2O), a positive end expiratory pressure (PEEP) of 3 millibar and a frequency of 150 per minute. Following an equilibration period of 3 minutes of tidal ventilation, two lung inflations to a transrespiratory pressure of 2.5 millibar were performed and baseline measurements were taken. Airway hyper-responsiveness (AHR) was determined by aerosolizing increasing concentrations of methacholine. After baseline determination of airway resistance, mice were challenged with 0 to 64 mg/mL methacholine nebulized directly into the ventilatory circuit using an AeroNeb™ Lab nebulizer system (SCIREQ). Two models of respiratory mechanics were used to assess lung resistance: a linear 1st-order single compartment model and a constant-phase model. All data points were collected with FlexiVent™ software (SCIREQ). […]

Series [2] is described as follows: Nitroxide concentration measurement by EPR in mouse blood and tissue. The note with it: mice fed chow with 0.7 weight percent 3-CPT, FIG. 12. The series is classed as in vivo.
Series [3] relates to ovalbumin-induced murine model of asthma. In words: Inflammatory cell counts in BAL fluid in OVA asthma model. In kind it is in vivo, BALB/c mice. On the procedure:
as §1, §2, §3
(§4) Bronchoalveolar lavage (BAL) fluid (also referred to herein as “BALf”) and bronchial submucosal inflammation are characteristic features of asthma. Mice were euthanized with an overdose of 50 mg/kg pentobarbital and ice-cold phosphate buffer saline (PBS) (0.6 ml) was instilled into the lungs. BAL fluid was obtained by three aspirations via tracheal cannulation, centrifuged, and the supernatant collected and stored at −70° C. Cell pellets were re-suspended in PBS and 100 μl aliquots placed onto slides and centrifuged (200 g, 4° C., 10 minutes) in a cytospin machine. Induction of oxidative stress was evaluated using a 2′,7′-dichlorofluorescein fluorescence assay, and total IgE, IgG2a, panel of cytokines, transforming growth factors, collagen, protein nitration and lipid peroxidation were measured using commercial kits according to the manufacturer's recommendations. A Sircol™ collagen assay kit was obtained from Biocolor Life Sciences Assays, a protein nitration assay kit was obtained from Abcam, and other assay kits were obtained from PeproTech Asia.
(§5) Control and experimental groups contained 10 mice each. The effects of the nitroxides were investigated by feeding the mice ad libitum a diet of nitroxide-containing chow (1 weight percent) during both ovalbumin (OVA)-induced sensitization and challenging periods (days −2-19), during the sensitization period (days −2-11) or challenge period (days 13-19). Nitroxide-containing chow were prepared by dissolving 500 grams chow in a minimum volume of water containing 5 grams nitroxide and 5 grams commercial chicken soup powder, preparing the chow and drying it at 37° C. (animals were reluctant to eat nitroxide-containing chow until chicken soup powder was added).
3-CP was also administered using 3 daily intraperitoneal (IP) injections (200 μl, 0.15 M, ˜300 mg/kg) 0.5 hour prior to the challenge with OVA aerosol, or by nasal instillation (50 μl, 0.3 M, ˜150 mg/kg) twice a day 0.5 hour prior to the challenge with OVA aerosol and 6 hours later without exceeding its maximally tolerated dose, which has been previously established to be 300-500 mg/kg. Both 3-CP and TPL were non-toxic when administered orally or via IP injection to untreated OVA-challenged mice for 22 days. […]

Series [4] can be described thus: Nitroxide concentration measurement by EPR in mouse blood and tissue. In kind it is in vivo. The note with it: mice. How it is done:
Electron paramagnetic resonance (EPR) spectroscopy was used to determine residual levels of nitroxide in mouse tissue. Blood samples or tissue samples were diluted with 0.5 ml phosphate buffer (40 mM, pH 7.4) or water, inserted into a flexible capillary placed in a quartz tube installed within the EPR spectrometer cavity and assayed for residual nitroxide. A similar procedure was used to determine the residual nitroxide in tissue homogenates of various organs, which were corrected for blood contamination spectrophotometrically by following the absorption of oxyhemoglobin at 400-600 nm. Measured EPR signals were compared to those of a nitroxide standard solution.
In order to determine total hydroxylamine and nitroxide concentrations, 2 mM K3Fe(CN)6 was added to samples in order to oxidize hydroxylamines to the respective nitroxide, and the nitroxide level was determined by EPR spectroscopy as described hereinabove.
as §5
(§6) 3-CP was also administered using 3 daily intraperitoneal (IP) injections (200 μl, 0.15 M, ˜300 mg/kg) 0.5 hour prior to the challenge with OVA aerosol, or by nasal instillation (50 μl, 0.3 M, ˜150 mg/kg) twice a day 0.5 hour prior to the challenge with OVA aerosol and 6 hours later without exceeding its maximally tolerated dose, which has been previously established to be 300-500 mg/kg. Both 3-CP and TPL were non-toxic when administered orally or via IP injection to untreated OVA-challenged mice for 22 days.

A short description of series [5]: Toxicity / maximally tolerated dose in mice. The series is classed as in vivo. The note with it: administered orally or via IP injection to untreated OVA-challenged mice for 22 days. On the procedure:
as §6

The next series relates to IL-13. In words: IL-13 level in OVA asthma model. The series is classed as in vivo, BALB/c mice. Particulars: OVA IP-Dex: dexamethasone intraperitoneal (1 mg/kg); lung tissue (table title). On the procedure: as §1, §2, §4
The efficacy of oral administration of 3-CP (1 weight percent in chow) during the sensitization period and/or challenge period was then compared to IP injection (˜300 mg/kg, 0.5 hour before the OVA challenge) or intranasal instillation (˜150 mg/kg, 0.5 hour before the OVA and 6 hours later) of 3-CP, as well as to dexamethasone treatment (1 mg/kg, 3 daily IP injections, 0.5 hour prior to the challenge with OVA aerosol).
In order to assess the effect of 3-CP on inflammatory signaling pathways, […] to procedures described hereinabove, upon oral, intranasal or IP administration of 3-CP.

Take `CC1(C)C=C(C(N)=O)C(C)(C)N1[O]` [3-CPT, 3-carbamoyl-2,2,5,5-tetramethyl-3-pyrrolin-1-oxyl]: the water-solubility result in the series “Water-solubility” was “lower water-solubility than 3-CP”. For the same molecule, the “effect on methacholine-induced lung resistance” value in series [1] (0.7 weight percent 3-CPT in chow, FIG. 14) was “reduced methacholine-induced lung resistance, albeit to a considerably lesser degree than 3-CP”. The “reduction to the respective hydroxylamine in the blood” value in series [2] was “most of the 3-CPT in the blood was reduced to the respective hydroxylamine”. Besides, in series [3] (3-CPT oral (0.7 weight percent in chow) or intraperitoneal (300 mg/kg), FIG. 13), the “inhibiting increases in inflammatory cell levels (especially eosinophil levels) in asthmatic animals” value is recorded as “effective”. The “effect on OVA-induced increase of total cell counts in BAL fluid” value in series [3] (oral, 0.7 weight percent 3-CPT in chow, FIG. 13) is on record as “effective in reversing OVA-induced increase of total cell counts”.
Regarding `CC1(C)CC(O)CC(C)(C)N1[O]` [TPL, 4-Hydroxy-2,2,6,6-tetramethyl-piperidin-1-oxyl, reference compound], the “residual concentration of the respective hydroxylamine compared with the nitroxide” value in series [4] (data not shown) is “higher than those of the therapeutically active nitroxide free radical”. In addition, in series [4] (oral administration (1 weight percent nitroxide in chow), FIG. 1), the “residual concentration of nitroxide in blood” value is recorded as “detectable levels”. In series [1] (1 weight percent in chow, FIG. 3), the “effect on methacholine-induced increase in lung resistance” value is given as “suppressed methacholine-induced increase in lung resistance”. In addition, in series [5], the toxicity entry is “non-toxic”. In addition, the “effect on OVA-induced increase in total inflammatory cell and eosinophil counts in BAL fluid” value in series [3] (oral, 1 weight percent in chow, FIG. 4) was “attenuated the increase in total inflammatory cell counts and eosinophil counts”.
Take `C[C@@H]1C[C@H]2[C@@H]3CCC4=CC(=O)C=C[C@]4(C)[C@@]3(F)[C@@H](O)C[C@]2(C)[C@@]1(O)C(=O)CO` [dexamethasone, Dexamethasone, reference compound]: the IL-13 level in the series with IL-13 stood at 1.80 ng/mg.

The values are drawn from US10441568B2, “Nitroxide radicals for the treatment of diseases of the respiratory tract” (priority 2015, dated 2019).
